Experimental findings from ChEMBL document CHEMBL1153520, “A multivalent approach to the design and discovery of orally efficacious 5-HT4 receptor agonists” (J Med Chem, 2009) are described below.

Series [1] concerns Rattus norvegicus. Description: Induction of 5HT4 receptor-mediated relaxation of esophagus in iv dosed anesthetized Sprague-Dawley rat by digital sonomicrometry. In kind it is functional.
The target of series [2] is 5-hydroxytryptamine receptor 6 (Homo sapiens) (UniProt P50406). Description: Inhibition of 5HT6 receptor at 10 uM.
Sequence of 5-hydroxytryptamine receptor 6 (Homo sapiens) (P50406 whole entry): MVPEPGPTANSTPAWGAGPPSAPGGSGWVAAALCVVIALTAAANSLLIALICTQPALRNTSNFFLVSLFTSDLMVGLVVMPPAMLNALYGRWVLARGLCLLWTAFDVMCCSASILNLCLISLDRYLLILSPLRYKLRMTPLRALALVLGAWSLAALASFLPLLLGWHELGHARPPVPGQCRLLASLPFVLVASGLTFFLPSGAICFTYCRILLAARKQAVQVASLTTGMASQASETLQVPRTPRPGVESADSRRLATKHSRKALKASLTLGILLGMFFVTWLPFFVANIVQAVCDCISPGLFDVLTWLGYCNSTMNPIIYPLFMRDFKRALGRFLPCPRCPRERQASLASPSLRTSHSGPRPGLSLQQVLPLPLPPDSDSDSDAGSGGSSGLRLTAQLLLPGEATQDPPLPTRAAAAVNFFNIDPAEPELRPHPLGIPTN
In series [3] the target is 5-hydroxytryptamine receptor 5A (Homo sapiens) (UniProt P47898). In words: Inhibition of 5HT5A receptor at 10 uM.
Sequence of 5-hydroxytryptamine receptor 5A (Homo sapiens) (P47898 whole entry): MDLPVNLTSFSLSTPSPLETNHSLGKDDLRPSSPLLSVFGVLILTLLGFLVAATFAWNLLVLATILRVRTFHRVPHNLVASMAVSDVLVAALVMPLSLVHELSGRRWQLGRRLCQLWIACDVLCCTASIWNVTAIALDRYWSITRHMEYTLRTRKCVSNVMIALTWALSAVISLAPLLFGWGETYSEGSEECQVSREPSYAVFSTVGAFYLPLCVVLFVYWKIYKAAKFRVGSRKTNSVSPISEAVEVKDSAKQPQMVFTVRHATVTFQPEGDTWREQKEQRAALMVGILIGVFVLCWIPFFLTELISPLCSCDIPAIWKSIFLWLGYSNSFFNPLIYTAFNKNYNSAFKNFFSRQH
Series [4] is described as follows: Oral bioavailability in Beagle dog at 2 mg/kg, po. The conditions noted are these: in vivo. In kind it is ADME, organism-based, Canis lupus familiaris.
Series [5] deals with 5-hydroxytryptamine receptor 7 (Homo sapiens) (UniProt P34969). Description: Inhibition of 5HT7 receptor at 10 uM.
Sequence of 5-hydroxytryptamine receptor 7 (Homo sapiens) (P34969 whole entry): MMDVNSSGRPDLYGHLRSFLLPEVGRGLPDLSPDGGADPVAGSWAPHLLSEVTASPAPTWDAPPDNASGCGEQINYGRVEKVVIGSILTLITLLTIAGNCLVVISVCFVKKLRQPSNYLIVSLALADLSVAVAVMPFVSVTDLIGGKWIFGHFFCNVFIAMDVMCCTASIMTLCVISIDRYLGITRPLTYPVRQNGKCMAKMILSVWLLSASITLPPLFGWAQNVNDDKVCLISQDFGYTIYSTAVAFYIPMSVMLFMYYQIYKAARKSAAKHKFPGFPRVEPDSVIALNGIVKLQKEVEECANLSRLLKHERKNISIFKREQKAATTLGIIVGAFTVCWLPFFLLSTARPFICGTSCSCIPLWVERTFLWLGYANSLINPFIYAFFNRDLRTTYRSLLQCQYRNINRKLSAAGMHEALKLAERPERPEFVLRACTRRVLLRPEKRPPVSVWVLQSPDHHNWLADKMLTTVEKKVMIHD
Series [6] can be described thus: AUC (0 to t) in Sprague-Dawley rat at 5 mg/kg, po. In kind it is ADME, organism-based. Particulars: plasma. More on the design: dose 5 mg/kg, route oral.
A short description of series [7]: Permeability across human Caco-2 cells assessed as permeability coefficient. In kind it is ADME, cell-based. Particulars: read-out: permeability.
Another series has as its target hERG (KCNH2) (Homo sapiens, UniProt Q12809). In words: Inhibition of human ERG potassium channel expressed in CHO-K1 cells at 3 uM by whole cell voltage clamp assay. In kind it is cell-based. Particulars: CHO-K1 cells expressing human ERG potassium channel.
A short description of series [8]: Half life in Sprague-Dawley rat at 5 mg/kg, po. In kind it is ADME, organism-based. Particulars: in vivo. More on the design: dose 5 mg/kg, route oral.
A short description of another series: in vitro. The conditions noted are these: rat, liver microsomes. Background: Liver microsomes are vesicles of endoplasmic reticulum, rich in cytochrome P450 enzymes.
In series [9] the target is 5-hydroxytryptamine receptor 2B (Homo sapiens) (UniProt P41595). Description: Inhibition of 5HT2B receptor at 10 uM.
Sequence of 5-hydroxytryptamine receptor 2B (Homo sapiens) (P41595 whole entry): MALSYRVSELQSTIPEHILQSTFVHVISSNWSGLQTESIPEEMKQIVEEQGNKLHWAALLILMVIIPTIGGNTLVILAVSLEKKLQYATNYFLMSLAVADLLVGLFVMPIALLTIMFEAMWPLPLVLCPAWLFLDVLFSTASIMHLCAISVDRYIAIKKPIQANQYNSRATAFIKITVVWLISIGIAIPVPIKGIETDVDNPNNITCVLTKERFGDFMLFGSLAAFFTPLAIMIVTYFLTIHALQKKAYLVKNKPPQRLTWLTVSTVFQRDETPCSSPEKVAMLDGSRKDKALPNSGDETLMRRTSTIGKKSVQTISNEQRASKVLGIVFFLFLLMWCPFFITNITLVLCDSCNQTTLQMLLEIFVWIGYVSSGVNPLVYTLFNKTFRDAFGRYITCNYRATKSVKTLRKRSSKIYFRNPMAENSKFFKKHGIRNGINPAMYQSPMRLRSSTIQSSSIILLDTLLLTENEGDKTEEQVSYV
Series [10] addresses T1, 5-hydroxytryptamine receptor 4 (Homo sapiens, UniProt Q13639). In words: Displacement of [H]GR-113808 from human 5HT4C receptor expressed in HEK293 cells by liquid scintillation counting. In kind it is cell-based.
Series [11] has as its target 5-hydroxytryptamine receptor 2A (Homo sapiens) (UniProt P28223). Description: Inhibition of 5HT2A receptor at 10 uM.
For the next series, the species on record is Homo sapiens. Description: Selectivity ratio of Ki for human 5HT3A receptor to Ki for human 5HT4C receptor.
A short description of series [12]: Oral bioavailability in Sprague-Dawley rat at 5 mg/kg, po. In kind it is ADME, organism-based. Particulars: in vivo.
The target of series [13] is T2, 5-hydroxytryptamine receptor 2C (Homo sapiens) (UniProt P28335).
T2 sequence (whole entry): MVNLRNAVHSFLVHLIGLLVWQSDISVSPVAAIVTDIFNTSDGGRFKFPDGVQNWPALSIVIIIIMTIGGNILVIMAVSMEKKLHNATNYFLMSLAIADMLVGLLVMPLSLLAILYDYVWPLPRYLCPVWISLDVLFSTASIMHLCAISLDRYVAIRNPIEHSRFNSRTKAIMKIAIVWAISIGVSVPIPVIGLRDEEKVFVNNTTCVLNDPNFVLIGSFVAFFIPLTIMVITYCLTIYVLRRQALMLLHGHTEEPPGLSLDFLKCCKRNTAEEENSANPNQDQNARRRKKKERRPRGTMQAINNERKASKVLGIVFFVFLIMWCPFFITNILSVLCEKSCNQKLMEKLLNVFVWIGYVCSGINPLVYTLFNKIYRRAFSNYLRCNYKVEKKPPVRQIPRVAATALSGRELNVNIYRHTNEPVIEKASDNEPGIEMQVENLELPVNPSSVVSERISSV
Description: Inhibition of 5HT1C receptor at 10 uM.

In series [14] the test system is Cavia porcellus. In words: Increase in colonic transit in Duncan Hartley guinea pig colonic transit model assessed as prokinetic activity at 3 mg/kg, sc relative to vehicle treated control. In kind it is functional, organism-based. Also noted: dose 3 mg/kg.
The test system of series [15] is Rattus norvegicus. In words: Induction of 5HT4 receptor-mediated relaxation of esophagus in anesthetized Sprague-Dawley rat at 3 mg/kg, intraduodenally by digital sonomicrometry. More on the design: dose 3 mg/kg. In kind it is functional, organism-based.
Series [16] can be described thus: Cmax in Beagle dog at 2 mg/kg, po. In kind it is ADME, organism-based, Canis lupus familiaris. Also noted: dose 2 mg/kg, route oral. The conditions noted are these: in vivo.
A short description of series [17]: Cmax in Sprague-Dawley rat at 5 mg/kg, po. Also noted: dose 5 mg/kg, route oral. The conditions noted are these: in vivo. In kind it is ADME, organism-based.
Series [18] has as its system Rattus norvegicus. Description: Induction of 5HT4 receptor-mediated relaxation of esophagus in intraduodenal dosed anesthetized Sprague-Dawley rat by digital sonomicrometry. In kind it is functional, organism-based.
Series [19] concerns the target T1, 5-hydroxytryptamine receptor 4. Description: Intrinsic activity at human 5HT4C receptor expressed in HEK293 cells assessed as accumulation of cAMP by flash plate adenylyl cyclase activation assay relative to serotonin. In kind it is functional, cell-based.
In series [20] the target is T3, 5-hydroxytryptamine receptor 1A (Homo sapiens) (UniProt P08908).
T3 sequence (whole entry): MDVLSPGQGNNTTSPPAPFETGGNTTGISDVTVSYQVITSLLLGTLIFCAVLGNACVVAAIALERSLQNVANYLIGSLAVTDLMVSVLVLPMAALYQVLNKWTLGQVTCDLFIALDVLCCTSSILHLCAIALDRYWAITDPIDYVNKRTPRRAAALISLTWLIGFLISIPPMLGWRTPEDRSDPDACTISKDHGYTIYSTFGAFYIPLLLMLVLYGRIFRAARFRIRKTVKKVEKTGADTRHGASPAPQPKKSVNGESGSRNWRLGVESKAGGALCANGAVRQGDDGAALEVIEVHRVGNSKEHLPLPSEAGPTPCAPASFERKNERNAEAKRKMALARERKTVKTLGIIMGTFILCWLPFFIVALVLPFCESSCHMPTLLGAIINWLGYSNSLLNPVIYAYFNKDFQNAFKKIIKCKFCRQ
In words: Inhibition of 5HT1A receptor at 10 uM.

Series [21] has as its target 5-hydroxytryptamine receptor 1D (Homo sapiens) (UniProt P28221). In words: Inhibition of 5HT1D receptor at 10 uM.
The target in series [22] is T1, 5-hydroxytryptamine receptor 4. Description: Agonist activity at human 5HT4C receptor expressed in HEK293 cells assessed as accumulation of cAMP by flash plate adenylyl cyclase activation assay. In kind it is functional, cell-based.
Series [23] concerns Cavia porcellus. Description: Induction of colon longitudinal muscle contraction in sc dosed Duncan Hartley guinea pig. The conditions noted are these: Muscle tissue. In kind it is functional, organism-based.
The target in series [24] is T2, 5-hydroxytryptamine receptor 2C (Homo sapiens). Description: Inhibition of 5HT2C receptor at 10 uM.
Series [25] in a line: Oral bioavailability in human. In kind it is ADME, organism-based. Particulars: in vivo.

Calls of active or inactive are those of the source. No cut-off for these calls is given here.

T1 sequence (Q13639 whole entry): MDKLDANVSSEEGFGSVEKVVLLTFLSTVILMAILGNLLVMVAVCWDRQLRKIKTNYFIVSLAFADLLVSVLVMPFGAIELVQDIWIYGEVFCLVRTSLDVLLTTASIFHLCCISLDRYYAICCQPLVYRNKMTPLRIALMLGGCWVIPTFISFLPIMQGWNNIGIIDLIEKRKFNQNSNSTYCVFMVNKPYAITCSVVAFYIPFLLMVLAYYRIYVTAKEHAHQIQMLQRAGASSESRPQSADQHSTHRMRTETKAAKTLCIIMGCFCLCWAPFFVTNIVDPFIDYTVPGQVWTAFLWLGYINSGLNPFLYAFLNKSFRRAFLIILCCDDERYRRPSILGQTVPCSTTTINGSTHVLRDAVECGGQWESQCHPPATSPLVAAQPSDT
Sequence of hERG (KCNH2) (Q12809 whole entry): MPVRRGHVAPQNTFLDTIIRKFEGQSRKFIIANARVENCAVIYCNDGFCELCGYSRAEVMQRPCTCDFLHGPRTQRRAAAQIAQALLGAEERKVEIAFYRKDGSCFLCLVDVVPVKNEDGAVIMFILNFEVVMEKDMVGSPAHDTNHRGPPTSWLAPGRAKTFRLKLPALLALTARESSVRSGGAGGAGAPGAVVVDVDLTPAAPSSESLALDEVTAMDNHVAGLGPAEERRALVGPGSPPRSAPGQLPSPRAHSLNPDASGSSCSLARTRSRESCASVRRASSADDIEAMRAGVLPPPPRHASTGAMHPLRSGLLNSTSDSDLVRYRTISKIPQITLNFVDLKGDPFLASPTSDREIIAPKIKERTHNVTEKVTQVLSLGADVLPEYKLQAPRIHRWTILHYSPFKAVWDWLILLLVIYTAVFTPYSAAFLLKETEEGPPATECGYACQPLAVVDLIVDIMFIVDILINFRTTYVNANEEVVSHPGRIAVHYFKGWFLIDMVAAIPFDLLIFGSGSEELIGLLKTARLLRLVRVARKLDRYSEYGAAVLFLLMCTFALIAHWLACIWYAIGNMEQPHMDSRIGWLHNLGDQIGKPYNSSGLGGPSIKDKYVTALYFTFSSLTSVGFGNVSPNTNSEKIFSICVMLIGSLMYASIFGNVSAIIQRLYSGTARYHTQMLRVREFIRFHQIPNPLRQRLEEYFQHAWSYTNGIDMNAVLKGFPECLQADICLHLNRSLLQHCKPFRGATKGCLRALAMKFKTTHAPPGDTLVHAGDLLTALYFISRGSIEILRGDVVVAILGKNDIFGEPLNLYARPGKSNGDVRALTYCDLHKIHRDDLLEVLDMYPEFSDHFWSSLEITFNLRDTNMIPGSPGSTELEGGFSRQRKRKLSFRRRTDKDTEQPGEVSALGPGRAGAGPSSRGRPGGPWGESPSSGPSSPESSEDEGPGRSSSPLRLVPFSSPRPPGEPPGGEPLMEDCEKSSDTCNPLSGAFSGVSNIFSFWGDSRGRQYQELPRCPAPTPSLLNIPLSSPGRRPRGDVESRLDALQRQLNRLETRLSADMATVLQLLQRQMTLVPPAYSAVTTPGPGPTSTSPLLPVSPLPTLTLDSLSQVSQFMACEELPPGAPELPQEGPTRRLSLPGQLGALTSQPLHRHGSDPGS
Sequence of 5-hydroxytryptamine receptor 1D (Homo sapiens) (P28221 whole entry): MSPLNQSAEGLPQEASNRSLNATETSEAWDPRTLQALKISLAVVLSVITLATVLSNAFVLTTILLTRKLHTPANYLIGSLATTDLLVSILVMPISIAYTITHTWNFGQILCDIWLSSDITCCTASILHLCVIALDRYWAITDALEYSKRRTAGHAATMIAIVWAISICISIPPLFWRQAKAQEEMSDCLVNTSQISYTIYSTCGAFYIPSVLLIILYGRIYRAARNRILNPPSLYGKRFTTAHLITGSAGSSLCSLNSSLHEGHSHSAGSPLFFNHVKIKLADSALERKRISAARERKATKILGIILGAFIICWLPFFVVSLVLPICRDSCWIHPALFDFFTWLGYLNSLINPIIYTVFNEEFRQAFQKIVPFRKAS
Sequence of 5-hydroxytryptamine receptor 2A (Homo sapiens) (P28223 whole entry): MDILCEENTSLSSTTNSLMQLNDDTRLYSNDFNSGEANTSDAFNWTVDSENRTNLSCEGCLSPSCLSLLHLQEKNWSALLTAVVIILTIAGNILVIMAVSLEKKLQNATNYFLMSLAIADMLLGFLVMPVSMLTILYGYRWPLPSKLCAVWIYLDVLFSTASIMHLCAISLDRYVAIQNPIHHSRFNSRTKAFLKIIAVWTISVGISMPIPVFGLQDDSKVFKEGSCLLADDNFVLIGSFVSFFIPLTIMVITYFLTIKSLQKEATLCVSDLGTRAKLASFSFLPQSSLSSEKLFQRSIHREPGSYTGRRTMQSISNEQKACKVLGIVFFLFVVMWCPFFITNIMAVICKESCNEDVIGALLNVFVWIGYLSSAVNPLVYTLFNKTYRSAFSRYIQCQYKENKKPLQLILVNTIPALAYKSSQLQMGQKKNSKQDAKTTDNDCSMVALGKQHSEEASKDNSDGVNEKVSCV

The term ED50 denotes the dose that gives a 50% effect, or the effect in half of the subjects. A low value points to an effect at a small dose. In the series on Rattus norvegicus [1], `COc1cc(N)c(Cl)cc1C(=O)NC1CCN(CCCOc2ccc(F)cc2)CC1OC` (configuration not stated) [CISAPRIDE] displayed an ED50 of 0.142 mg/kg.
As usually defined, the inhibition is the relative decrease from the control value, in per cent. Low readings indicate little suppression, high ones strong suppression. A word on the bioavailability: it is dose-corrected exposure relative to a reference, in per cent. For orientation: AUC(0-t) means exposure summed from dosing to a finite time, without extrapolation to infinity. A high value points to high exposure. One may read the half-life as the time in which the quantity being followed falls by half. High values mean slow decline, low ones rapid decline. Broadly, the Ki is the equilibrium dissociation constant of an inhibitor or competing ligand from its target. The low end stands for a stronger hold on the target, the high end for a looser hold on the target. One may read the Cmax as the peak of the concentration-time curve. As usually defined, the EC50 is the concentration at which the effect is half-maximal. As for `CC(C)n1c(=O)c(C(=O)N[C@H]2C[C@H]3CC[C@@H](C2)N3C[C@@H](O)CN2CCN(S(C)(=O)=O)CC2)cc2ccccc21`, the inhibition in [2], in series [3], in series [5], in [9], in series [11] and in series [13] was less than 50% in each case. Further, the inhibition in [20], in series [21] and in series [24] was less than 50% each time. Besides, the bioavailability is 63% in series [4] and 20% in series [12]. The same compound gave an AUC(0-t) in series [6] of 200 ng·h/mL. The Papp in series [7] came out at 14 ×10⁻⁶ cm/s. For the same compound, the Activity result with Rattus norvegicus [1] and with Rattus norvegicus [18] was “Dose-dependent effect” in each case. The same compound yielded an ED50 in the series on Rattus norvegicus [1] of 0.016 mg/kg. For the same compound, the inhibition at 3 µM against hERG (KCNH2) is 4%. The half-life in series [8] is 5.2 h; in the series “in vitro”, more than 1.5 h. This compound also showed a Ki in series [10] of 12.6 nM. The Ratio Ki in the series listed under Homo sapiens turned out to be 7400. Besides, the result in the series on Cavia porcellus [14] and in the series on Rattus norvegicus [15] was Active. Besides, the results for the Cmax in [16] and in series [17] were 320 ng/mL and 31 ng/mL, respectively. Further, the Intrinsic activity in [19] amounted to 94%. Further, the results for the EC50 (in series [22]; with Cavia porcellus [23]) were 0.398 nM and 2.51 nM, respectively.
Consider `CCCCCNC(=N)N/N=C/c1c[nH]c2ccc(OC)cc12` [TEGASEROD], for which, in [6], the AUC(0-t) came to 21 ng·h/mL. Also, in series [7], the Papp amounted to 11 ×10⁻⁶ cm/s. Also, the 50% effect level in the series with Rattus norvegicus [1] (ED50) was put at a dose of 0.0106 mg/kg. Besides, the half-life in [8] was 1.8 h; in “in vitro” it was more than 1.5 h. For the same compound, the figures for the bioavailability in [12] and in series [25] were 5% and 10%, respectively. In [17], this compound returned a Cmax of 6 ng/mL.
With `CC(C)n1c(=O)c(C(=O)N[C@H]2C[C@H]3CC[C@@H](C2)N3CCCN2CCN(S(C)(=O)=O)CC2)cc2ccccc21`, in [6], the AUC(0-t) is 183 ng·h/mL. Moreover, in [7], the Papp was determined as 20 ×10⁻⁶ cm/s. Also, the inhibition at 3 µM on hERG (KCNH2) is 38%. The half-life in [8] was 7.9 h; in “in vitro”, 0.683 h. For the same compound, the affinity in series [10] corresponds to a Ki of 39.8 nM. In the series listed under Homo sapiens, the Ratio Ki is 2300. Besides, the bioavailability in [12] turned out to be 38%. Besides, the Cmax in series [17] was found to be 34 ng/mL. Also, the Intrinsic activity in series [19] is more than 100%. The EC50 in series [22] was 1.58 nM.
The compound `CC(C)n1c(=O)c(C(=O)N[C@H]2C[C@H]3CC[C@@H](C2)N3CCCCCCCN2CCN(S(C)(=O)=O)CC2)cc2ccccc21` had an AUC(0-t) in [6] of 83 ng·h/mL. In addition, in series [7], the Papp amounted to 22 ×10⁻⁶ cm/s. Further, testing at 3 µM against hERG (KCNH2) gave an inhibition of 46%. The values for the half-life (in series [8]; in the series “in vitro”) were 20.3 h and more than 1.5 h, respectively. Besides, in series [10], the Ki was 10 nM. The Ratio Ki in the series listed under Homo sapiens stood at 2600. Further, the bioavailability in series [12] is 20%. The Cmax in [17] turned out to be 10 ng/mL. In addition, the Intrinsic activity in series [19] is more than 100%. Also, in [22], the EC50 is 2.51 nM.
Turning to `CC(C)n1c(=O)c(C(=O)N[C@H]2C[C@H]3CC[C@@H](C2)N3CCCCCCCN2CCCCC2)cc2ccccc21`, the Papp in series [7] is 23 ×10⁻⁶ cm/s. The compound also gave an inhibition at 3 µM against hERG (KCNH2) of 9%. This compound also showed a Ki in series [10] of 2.51 nM. Besides, in the series listed under Homo sapiens, the Ratio Ki was 10000. Besides, the Intrinsic activity in series [19] worked out at 90%. Further, the EC50 in series [22] was 0.794 nM.
As for `CC(C)n1c(=O)c(C(=O)N[C@H]2C[C@H]3CC[C@@H](C2)N3CCCCCCCN(C)CCCN(C)S(C)(=O)=O)cc2ccccc21`, the Papp in [7] worked out at 3 ×10⁻⁶ cm/s. Besides, the inhibition at 3 µM against hERG (KCNH2) was found to be 12%. The same compound had a Ki in [10] of 5.01 nM. The Ratio Ki in the series listed under Homo sapiens came to 6500. The Intrinsic activity in [19] amounted to 96%. In series [22], the EC50 is 0.631 nM.
`CC(C)n1c(=O)c(C(=O)N[C@H]2C[C@H]3CC[C@@H](C2)N3CCCN2CCC[C@@H]2C(N)=O)cc2ccccc21`: the Papp in series [7] was determined as 2 ×10⁻⁶ cm/s. Moreover, the inhibition at 3 µM against hERG (KCNH2) amounted to 12%. The compound also gave a Ki in [10] of 50.1 nM. Further, the Ratio Ki in the series listed under Homo sapiens stood at 1500. For the same compound, the Intrinsic activity in [19] was more than 100%. In series [22], the EC50 is 3.98 nM.
